# Experimental data: ChEMBL document CHEMBL3120075 (J Med Chem, 2014)
# Tests used:
# [1] = Volume of distribution at steady state in Sprague-Dawley rat at 1 mg/kg, iv; assay type: ADME, organism-based; set-up: dose 1 mg/kg, route intravenous; conditions: in vivo, read-out: Vdss
# [2] = Oral bioavailability in Sprague-Dawley rat at 2 mg/kg; assay type: ADME, organism-based; conditions: in vivo
# [3] = Mean residence time in beagle dog at 0.2 mg/kg, iv; assay type: ADME, organism-based, Canis lupus familiaris; set-up: dose 0.2 mg/kg, route intravenous; conditions: in vivo
# [4] = Mean residence time in Sprague-Dawley rat at 1 mg/kg, iv; assay type: ADME, organism-based; set-up: dose 1 mg/kg, route intravenous; conditions: in vivo
# [5] = Half life in Sprague-Dawley rat at 1 mg/kg, iv; assay type: ADME, organism-based; set-up: dose 1 mg/kg, route intravenous; conditions: in vivo
# [6] = Half life in beagle dog at 0.2 mg/kg, iv; assay type: ADME, organism-based, Canis lupus familiaris; set-up: dose 0.2 mg/kg, route intravenous; conditions: in vivo
# [7] = Clearance in beagle dog at 0.2 mg/kg, iv; assay type: ADME, organism-based, Canis lupus familiaris; set-up: dose 0.2 mg/kg, route intravenous; conditions: in vivo
# [8] = Clearance in Sprague-Dawley rat at 1 mg/kg, iv; assay type: ADME, organism-based; set-up: dose 1 mg/kg, route intravenous; conditions: in vivo
# [9] = Volume of distribution at steady state in beagle dog at 0.2 mg/kg, iv; assay type: ADME, organism-based, Canis lupus familiaris; set-up: dose 0.2 mg/kg, route intravenous; conditions: in vivo, read-out: Vdss
# [10] = test system: Hepatitis C virus; assay: Antiviral activity against HCV genotype 1b Con1 infected in human HuH7 cells assessed as inhibition of viral RNA replication after 3 days by renilla luciferase reporter gene assay; assay type: functional, organism-based, Hepacivirus hominis; conditions: isolate Con1, Huh-7, 72 h
# [11] = test system: Hepatitis C virus; assay: Antiviral activity against HCV genotype 1a H77 infected in human HuH7 cells assessed as inhibition of viral RNA replication after 3 days by renilla luciferase reporter gene assay; assay type: functional, organism-based, Hepacivirus hominis; conditions: genotype 1a H77, Huh-7, 72 h
# [12] = test system: Hepatitis C virus; assay: Ratio of EC50 for HCV genotype 1a H77 infected in human HuH7 cells in presence of 10% BSA to EC50 for HCV genotype 1a H77 infected in human HuH7 cells; assay type: functional, Hepacivirus hominis, Huh-7
# [13] = test system: Hepatitis C virus; assay: Antiviral activity against HCV genotype 1a H77 infected in human HuH7 cells assessed as inhibition of viral RNA replication after 3 days by renilla luciferase reporter gene assay in presence of human serum; assay type: functional, organism-based, Hepacivirus hominis; conditions: genotype 1a H77, Huh-7, 72 h
# [14] = test system: Hepatitis C virus; assay: Antiviral activity against HCV genotype 1a H77 infected in human HuH7 cells assessed as inhibition of viral RNA replication after 3 days by renilla luciferase reporter gene assay in presence of 10% BSA; assay type: functional, organism-based, Hepacivirus hominis; conditions: genotype 1a H77, Huh-7, 72 h
# [15] = test system: Hepatitis C virus; assay: Ratio of EC50 for HCV genotype 1a H77 infected in human HuH7 cells in presence of human serum to EC50 for HCV genotype 1a H77 infected in human HuH7 cells; assay type: functional, Hepacivirus hominis, Huh-7
# [16] = Ratio of EC50 for HCV genotype 1a to EC50 for HCV genotype 1b; assay type: functional
SMILES,EC50 [10] [nM],EC50 [11] [nM],also measured
COC(=O)N[C@H](C(=O)N1CCC[C@H]1c1ncc(-c2ccc(-c3ccc(-c4ccc5nc([C@@H]6[C@H]7CC[C@H](C7)N6C(=O)[C@@H](NC(=O)OC)C(C)C)[nH]c5c4)cc3)cc2)[nH]1)C(C)C,0.006,0.16,Vd [1]: 1.81 L/kg; bioavailability [2]: 26.3%; MRT [3]: 5.47 h; MRT [4]: 2.42 h; half-life [5]: 2.07 h; half-life [6]: 4.01 h; clearance [7]: 6.67 mL/min/kg; clearance [8]: 12.5 mL/min/kg; Vd [9]: 2.03 L/kg
COC(=O)N[C@H](C(=O)N1CCC[C@H]1c1nc2ccc(-c3ccc(-c4ccc5nc([C@@H]6CCCN6C(=O)[C@@H](NC(=O)OC)C(C)C)[nH]c5c4)s3)cc2[nH]1)C(C)C,0.01,1.7,–
COC(=O)N[C@H](C(=O)N1CCC[C@H]1c1ncc(-c2ccc(-c3ccc(-c4cnc([C@@H]5[C@H]6CC[C@H](C6)N5C(=O)[C@@H](NC(=O)OC)C(C)C)[nH]4)cc3)cc2)[nH]1)C(C)C,0.009,0.21,Vd [1]: 0.98 L/kg; bioavailability [2]: 35.2%; MRT [3]: 6.6 h; MRT [4]: 1.4 h; half-life [5]: 1.49 h; half-life [6]: 5.29 h; clearance [7]: 0.833 mL/min/kg; clearance [8]: 11.7 mL/min/kg; Vd [9]: 0.31 L/kg
COC(=O)N[C@H](C(=O)N1CCC[C@H]1c1nc2ccc(C#Cc3ccc4nc([C@@H]5CCCN5C(=O)[C@@H](NC(=O)OC)C(C)C)[nH]c4c3)cc2[nH]1)C(C)C,0.14,> 44,–
COC(=O)N[C@H](C(=O)N1CCCC[C@H]1c1ncc(-c2ccc(-c3ccc(-c4cnc([C@@H]5CCCN5C(=O)[C@@H](NC(=O)OC)C(C)C)[nH]4)cc3)cc2)[nH]1)C(C)C,0.005,0.45,–
COC(=O)N[C@H](C(=O)N1CCC[C@H]1c1nc2ccc(-c3ccc(-c4ccc(-c5cnc([C@@H]6[C@H]7CC[C@H](C7)N6C(=O)[C@@H](NC(=O)OC)C(C)C)[nH]5)cc4)cc3)cc2[nH]1)C(C)C,0.021,0.66,–
COC(=O)N[C@H](C(=O)N1CCC[C@H]1c1nc2ccc(-c3ccc(-c4ccc5nc([C@@H]6CCCN6C(=O)[C@@H](NC(=O)OC)C(C)C)[nH]c5c4)cc3)cc2[nH]1)C(C)C,0.009,0.5,–
COC(=O)N[C@H](C(=O)N1CCC[C@H]1c1nc2ccc(-c3cc4cc5sc(-c6ccc7nc([C@@H]8CCCN8C(=O)[C@@H](NC(=O)OC)C(C)C)[nH]c7c6)cc5cc4s3)cc2[nH]1)C(C)C,0.016,0.2,–
CN(C)[C@@H](C(=O)N1CCC[C@H]1C(=O)Nc1ccc(/C=C/c2ccc(NC(=O)[C@@H]3CCCN3C(=O)[C@@H](c3ccccc3)N(C)C)cc2)cc1)c1ccccc1,0.1,–,–
COC(=O)N[C@H](C(=O)N1CCC[C@H]1c1ncc(C#Cc2ccc(-c3ccc4nc([C@@H]5CCCN5C(=O)[C@@H](NC(=O)OC)C(C)C)[nH]c4c3)cc2)[nH]1)C(C)C,0.016,2.5,–
COC(=O)N[C@H](C(=O)N1CCC[C@H]1c1ncc(-c2ccc3c(c2)C(F)(F)c2cc(-c4ccc5nc([C@@H]6[C@H]7CC[C@H](C7)N6C(=O)[C@@H](NC(=O)OC)C(C)C)[nH]c5c4)ccc2-3)[nH]1)C(C)C,0.004,0.056,Ratio EC50 [12]: 14; EC50 [13]: 0.784 nM; EC50 [14]: 0.784 nM; Ratio EC50 [15]: 14
Cc1ccc(O)c(-c2nn(C)cc2C#Cc2ccc(NC(=O)[C@@H]3COCCN3C(=O)[C@H](NC(=O)OC(C)(C)C)c3ccccc3)cc2)c1,< 1000,–,Ratio EC50 [16]: 1000
C[C@H](NC(=O)OCc1ccccc1)C(=O)Nc1cccc(C2S/C(=N\c3cccc(F)c3)N(Cc3ccco3)C2=O)c1 (stereo not given in full),580,–,Ratio EC50 [16]: 1000
COC(=O)N[C@H](C(=O)N1CCC[C@H]1c1ncc(-c2ccc3c(c2)C(C)(C)c2cc(-c4cnc([C@@H]5CCCN5C(=O)[C@@H](NC(=O)OC)C(C)C)[nH]4)ccc2-3)[nH]1)C(C)C,0.014,1.2,–
COC(=O)N[C@H](C(=O)N1CCC[C@H]1c1ncc(-c2ccc(-c3ccc4nc([C@@H]5CCCN5C(=O)[C@@H](NC(=O)OC)C(C)C)[nH]c4c3)cc2)[nH]1)C(C)C,0.3,> 44,–
COC(=O)N[C@H](C(=O)N1CCC[C@H]1c1ncc(-c2ccc3c(c2)C(=O)c2cc(-c4cnc([C@@H]5CCCN5C(=O)[C@@H](NC(=O)OC)C(C)C)[nH]4)ccc2-3)[nH]1)C(C)C,0.018,0.3,–
C[C@H](NC(=O)c1ccc(Sc2ccc(N)cc2)c(Nc2ncnc3nc(C(C)(C)C)ccc23)c1)c1ccccc1,3,46,–
COC(=O)N[C@H](C(=O)N1CCC[C@H]1c1ncc(-c2ccc(-c3ccc(-c4ccc5nc([C@@H]6CCCN6C(=O)[C@@H](NC(=O)OC)C(C)C)[nH]c5c4)s3)cc2)[nH]1)C(C)C,0.003,0.2,–
COC(=O)N[C@H](C(=O)N1CCC[C@H]1c1nc2ccc(C#CC#Cc3ccc4nc([C@@H]5CCCN5C(=O)[C@@H](NC(=O)OC)C(C)C)[nH]c4c3)cc2[nH]1)C(C)C,0.026,11,–
COC(=O)N[C@H](C(=O)N1CCC[C@H]1c1nc2ccc(-c3ccc4cc(-c5ccc6nc([C@@H]7CCCN7C(=O)[C@@H](NC(=O)OC)C(C)C)[nH]c6c5)ccc4c3)cc2[nH]1)C(C)C,0.004,0.11,–
COC(=O)N[C@H](C(=O)N1CCC[C@H]1c1nc(-c2ccc3cc(-c4ccc5[nH]c([C@@H]6CCCN6C(=O)[C@@H](NC(=O)OC)C(C)C)nc5c4)ccc3c2)c[nH]1)C(C)C,0.007,0.071,–
COC(=O)N[C@H](C(=O)N1CCC[C@H]1c1nc2ccc(-c3ccc(-c4ccc(-c5ccc6nc([C@@H]7CCCN7C(=O)[C@@H](NC(=O)OC)C(C)C)[nH]c6c5)cc4)cc3)cc2[nH]1)C(C)C,0.044,3.7,–
COC(=O)N[C@H](C(=O)N1CCC[C@H]1c1ncc(-c2ccc3c(c2)Cc2cc(-c4cnc([C@@H]5CCCN5C(=O)[C@@H](NC(=O)OC)C(C)C)[nH]4)ccc2-3)[nH]1)C(C)C,0.013,0.094,–
COC(=O)N[C@H](C(=O)N1CCC[C@H]1c1ncc(-c2ccc(-c3ccc(-c4ccc5nc([C@@H]6CCCN6C(=O)[C@@H](NC(=O)OC)C(C)C)[nH]c5c4)cc3)cc2)[nH]1)C(C)C,0.007,0.17,Vd [1]: 1.76 L/kg; bioavailability [2]: 11.5%; MRT [3]: 3 h; MRT [4]: 1.71 h; half-life [5]: 1.57 h; half-life [6]: 2.3 h; clearance [7]: 13 mL/min/kg; clearance [8]: 17.3 mL/min/kg; Vd [9]: 2.31 L/kg
COC(=O)N[C@H](C(=O)N1CCC[C@H]1c1ncc(-c2ccc3c(c2)C(F)(F)c2cc(-c4ccc5nc([C@@H]6CCCN6C(=O)[C@@H](NC(=O)OC)C(C)C)[nH]c5c4)ccc2-3)[nH]1)C(C)C,0.003,0.04,Vd [1]: 0.93 L/kg; bioavailability [2]: 36.7%; MRT [3]: 3.69 h; MRT [4]: 2.21 h; half-life [5]: 1.83 h; half-life [6]: 2.63 h; clearance [7]: 8.83 mL/min/kg; clearance [8]: 7 mL/min/kg; Vd [9]: 1.96 L/kg
COC(=O)N[C@H](C(=O)N1CCC[C@H]1c1ncc(-c2ccc(C#Cc3ccc4nc([C@@H]5CCCN5C(=O)[C@@H](NC(=O)OC)C(C)C)[nH]c4c3)cc2)[nH]1)C(C)C,0.011,0.38,–
COC(=O)N[C@H](C(=O)N1CCC[C@H]1c1nc2ccc(-c3ccc4nc([C@@H]5CCCN5C(=O)[C@@H](NC(=O)OC)C(C)C)[nH]c4c3)cc2[nH]1)C(C)C,35,> 44,–
O=C(Nc1ccncc1)c1ccc(-c2csc(NC(=O)[C@@H]3CCCN3C(=O)OCc3ccccc3)n2)cc1,80,–,Ratio EC50 [16]: 1000
